Drawing on ChEMBL document CHEMBL1136287, “Synthesis and testing of novel phenyl substituted side-chain analogues of classical cannabinoids” (Bioorg Med Chem Lett, 2003), this text covers Ki for 5 molecules.

Broadly, the Ki is the equilibrium dissociation constant of an inhibitor or competing ligand from its target. A higher Ki goes with a looser hold on the target.

In test [1] the target is T1, Cannabinoid receptor 1 (Homo sapiens, UniProt P21554). The experiment in a line: Binding affinity towards Cannabinoid receptor 1 using CP-55940 as radioligand in HEK293 EBNA cells. The test is classed as cell-based.
The target in test [2] is T2, Cannabinoid receptor 2 (Homo sapiens, UniProt P34972). The experiment in a line: Binding affinity towards Cannabinoid receptor 2 using CP-55940 as radioligand in HEK293 EBNA cells. In kind it is cell-based.
Test [3] concerns the target T2, Cannabinoid receptor 2. The experiment in a line: Binding affinity towards Cannabinoid receptor 2.
For test [4], the target named is T1, Cannabinoid receptor 1. Kind of test: Binding affinity towards Cannabinoid receptor 1.

T1 sequence (P21554 whole entry): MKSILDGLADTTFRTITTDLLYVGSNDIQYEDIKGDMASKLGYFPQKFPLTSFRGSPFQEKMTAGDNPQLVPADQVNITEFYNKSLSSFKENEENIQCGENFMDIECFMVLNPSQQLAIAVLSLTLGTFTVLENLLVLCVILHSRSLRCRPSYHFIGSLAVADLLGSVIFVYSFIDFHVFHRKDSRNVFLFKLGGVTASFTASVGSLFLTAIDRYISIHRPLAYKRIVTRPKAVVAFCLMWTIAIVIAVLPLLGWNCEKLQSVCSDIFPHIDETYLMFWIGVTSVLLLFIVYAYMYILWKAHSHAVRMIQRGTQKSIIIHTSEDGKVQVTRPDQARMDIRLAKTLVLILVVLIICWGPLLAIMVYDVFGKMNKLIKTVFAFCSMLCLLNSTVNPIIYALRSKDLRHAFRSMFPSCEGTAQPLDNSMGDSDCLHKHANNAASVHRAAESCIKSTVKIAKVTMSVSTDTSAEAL
T2 sequence (P34972 whole entry): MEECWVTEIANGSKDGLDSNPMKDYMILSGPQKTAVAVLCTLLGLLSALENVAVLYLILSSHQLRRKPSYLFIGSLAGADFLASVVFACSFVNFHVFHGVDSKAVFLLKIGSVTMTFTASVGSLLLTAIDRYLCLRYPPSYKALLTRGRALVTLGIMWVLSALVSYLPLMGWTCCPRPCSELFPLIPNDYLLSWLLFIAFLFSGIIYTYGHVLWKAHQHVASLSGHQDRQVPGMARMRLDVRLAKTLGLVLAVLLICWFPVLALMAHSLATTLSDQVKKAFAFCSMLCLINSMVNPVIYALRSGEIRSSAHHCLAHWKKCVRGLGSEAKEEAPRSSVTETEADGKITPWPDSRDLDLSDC

Take `CC1=CC[C@@H]2[C@@H](C1)c1c(O)cc(C(C)(C)C3CCCCC3)cc1OC2(C)C`: the figures for the Ki on Cannabinoid receptor 1 [1] and on Cannabinoid receptor 2 [2] were 0.57 nM and 0.65 nM, respectively.

As for `CC1=CC[C@@H]2[C@@H](C1)c1c(O)cc(C(C)(C)c3ccccc3)cc1OC2(C)C`, the values for the Ki at Cannabinoid receptor 1 [1] and on Cannabinoid receptor 2 [2] were 12.3 nM and 0.91 nM, respectively.

With `CC1=CC[C@@H]2[C@@H](C1)c1c(O)cc(Cc3ccccc3)cc1OC2(C)C`, the Ki turned out to be 67.6 nM at Cannabinoid receptor 1 [1] and 85.9 nM on Cannabinoid receptor 2 [2].

Turning to `CC1=CC[C@@H]2[C@@H](C1)c1c(O)cc(C3(C4CCCCC4)SCCS3)cc1OC2(C)C`, the Ki is 1.05 nM on Cannabinoid receptor 2 [3] and 1.86 nM at Cannabinoid receptor 1 [4].

For the molecule `CC1=CC[C@@H]2[C@@H](C1)c1c(O)cc(C3(c4ccccc4)SCCS3)cc1OC2(C)C`, the inhibition constant Ki at Cannabinoid receptor 1 [1] came to 17.3 nM; at Cannabinoid receptor 2 [2], 17.6 nM.
